For the experiment, the target named is Rho kinase (fused protein of bovine Rho kinase catalyst region and glutathione S-transferase) (Bos taurus, UniProt Q28021). The experiment can be described thus: Rho kinase inhibitory activity (phosphorylation of S6 231–239 substrate, γ32P-ATP). The class given is biochemical. The following applies: concentration inhibiting substrate phosphorylation by 50%. How it is done: This permits the substrate to be labeled with the radioisotope.
Rho kinase (fused protein of bovine Rho kinase catalyst region and glutathione S-transferase), sequence (Q28021 92-354 limits assumed): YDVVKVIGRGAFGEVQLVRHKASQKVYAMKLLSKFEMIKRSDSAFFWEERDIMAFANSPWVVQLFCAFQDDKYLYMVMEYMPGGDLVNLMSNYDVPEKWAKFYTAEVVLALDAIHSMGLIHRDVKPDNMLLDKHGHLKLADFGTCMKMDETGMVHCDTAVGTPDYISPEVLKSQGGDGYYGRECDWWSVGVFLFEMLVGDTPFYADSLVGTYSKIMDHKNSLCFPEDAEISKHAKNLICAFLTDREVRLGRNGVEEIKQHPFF
Thereafter, the substrate was adsorbed to a filter paper. ATP was washed away with a phosphoric acid solution, and the amount of the phosphorylated substrate was then measured with a liquid scintillation counter.
As usually defined, the IC50 is the concentration needed to halve the response being measured. A low value points to inhibition by little substance. `O=C(NCc1c(Cl)ccc(Cl)c1Cl)Nc1ccc2[nH]ncc2c1` [Example 101, N-(1H-5-Indazolyl)-N′-(2,3,6-trichloro-benzyl)urea] gave a concentration for half-maximal inhibition (IC50) of 1.8 µM.

Regarding `Fc1ccc(CN2CCC(Nc3ccc4[nH]ncc4c3)C2)cc1` (centres unmarked) [Example 154, N-[1-(4-Fluorobenzyl)tetrahydro-1H-3-pyrrolyl]-N-(1H-5-indazolyl)amine], the 50% inhibitory concentration (IC50) was 0.084 µM.

The compound `Cc1ccc(CN2CCC(Nc3ccc4[nH]ncc4c3)CC2)cc1[N+](=O)[O-]` [Example 124] showed a 50% inhibitory concentration (IC50) of 0.238 µM.

In turn, `Clc1cc2c(cc1CN1CCC(Nc3ccc4[nH]ncc4c3)CC1)OCO2` [Example 144, N-{1-[(6-Chloro-1,3-benzodioxol-5-yl)methyl]-4-piperidyl}-N-(1H-5-indazolyl)amine] had an IC50 of 0.453 µM.

The compound `O=C(COc1c(Br)cc(F)cc1Br)Nc1ccncc1` [Example 2, N1-(4-Pyridyl)-2-(2,6-dibromo-4-fluorophenoxy)acetamide] registered an IC50 of 2.21 µM.

With `O=C(Nc1ccncc1)Nc1ccc(Br)cc1F` [Example 60, N-(4-Bromo-2-fluorophenyl)-N′-(4-pyridyl)urea], the 50% inhibitory concentration (IC50) was determined as 11 µM.

In turn, `O=C(NCc1c(F)cc(F)cc1F)Nc1ccc2c(c1)C(=O)NC2=O` [Example 99, N-(1,3-Dioxo-2,3-dihydro-1H-5-isoindolyl)-N′-(2,4,6-trifluorobenzyl)urea] had an IC50 of 0.24 µM.

For the compound `O=C(NCc1c(Cl)cccc1Cl)Nc1ccc2[nH]ncc2c1` [Example 106, N-(2,6-Dichlorobenzyl)-N′-(1H-5-indazolyl)urea], the half-maximal inhibitory concentration (IC50) came out at 1.4 µM.

As for `COc1ccc(CN2CCCC(Nc3ccc4[nH]ncc4c3)C2)cc1` (centres unmarked) [Example 166, N-(1H-5-Indazolyl)-N-[1-(4-methoxybenzyl)-3-piperidyl]amine], half-maximal inhibition (IC50) was put at 0.016 µM.

The compound `O=C(Nc1ccc2c(c1)C(=O)NC2=O)Nc1c(Cl)cccc1Cl` [Example 67, N-(2,6-Dichlorophenyl)-N′-(1,3-dioxo-2,3-dihydro-1H-isoindolyl)urea] came in with an IC50 of 1.92 µM.

`O=C(Nc1ccncc1)Nc1c(F)cccc1C(F)(F)F` [Example 58] displayed an IC50 of 13.5 µM.

Consider `NC(=O)c1ccc(NC(=O)Nc2c(Cl)cccc2Cl)cc1` [Example 65, 4-{[(2,6-Dichloroanilino)carbonyl]amino}-benzamide], for which the IC50 amounted to 9 µM.

`O=C(COc1ccc(O)cc1)Nc1ccc2[nH]ncc2c1` [Example 51, N1-(1H-5-Indazolyl)-2-(4-hydroxyphenoxy)acetamide] came in with a concentration for half-maximal inhibition (IC50) of 0.459 µM.

`c1cc(CN2CCC(Nc3ccc4[nH]ncc4c3)CC2)ccn1` [Example 133, N-(1H-5-Indazolyl)-N-[1-(4-pyridylmethyl)-4-piperidyl]amine] displayed a half-maximal inhibitory concentration (IC50) of 0.68 µM.

For `O=C(Cc1ccc([N+](=O)[O-])cc1)Nc1ccc2[nH]ncc2c1` [Example 49, N1-(1H-5-Indazolyl)-2-(4-nitrophenyl)acetamide], half-maximal inhibition (IC50) was put at 0.513 µM.

The compound `O=C(Cc1ccc(O)c(O)c1)Nc1ccc2[nH]ncc2c1` [Example 44, N1-(1H-5-Indazolyl)-2-(3,4-dihydroxyphenyl)acetamide] had an IC50 of 0.394 µM.

`O=C(NCc1c(F)cccc1C(F)(F)F)Nc1ccc2[nH]ncc2c1` [Example 96, N-[2-fluoro-6-(trifluoromethyl)benzyl]-N′-(1H-5-indazolyl)urea] showed an IC50 of 0.23 µM.

In turn, `O=C(Cc1cccc([N+](=O)[O-])c1)Nc1ccc2[nH]ncc2c1` [Example 48, N1-(1H-5-Indazolyl)-2-(3-nitrophenyl)acetamide] returned a half-inhibitory concentration (IC50) of 0.191 µM.

The compound `COc1ccc(CN2CCC(Nc3ccc4[nH]ncc4c3)CC2)cc1` [Example 138, N-(1H-5-Indazolyl)-N-[1-(4-methoxybenzyl)-4-piperidyl]amine] returned a concentration for half-maximal inhibition (IC50) of 0.355 µM.

Consider `O=C(Nc1ccncc1)NC1CCCCC1` [Example 19, N-Cyclohexyl-N′-(4-pyridyl)urea], for which the IC50 was 7.26 µM.

For `O=C(NCc1c(F)c(F)c(F)c(F)c1F)Nc1ccc2c(c1)C(=O)NC2=O` [Example 98, N-(1,3-Dioxo-2,3-dihydro-1H-5-isoindolyl)-N′-(2,3,4,5,6-pentafluorobenzyl)urea], the IC50 was 0.41 µM.

The compound `CCc1ccccc1CN1CCC(Nc2ccc3[nH]ncc3c2)CC1` [Example 121, N-[1-(2-Ethylbenzyl)-4-piperidyl]-N-(1H-5-indazolyl)amine] gave a half-inhibitory concentration (IC50) of 0.513 µM.

With `Clc1ccccc1CN1CCCC(Nc2ccc3[nH]ncc3c2)C1` (centres unmarked) [Example 161, N-[1-(2-Chlorobenzyl)-3-piperidyl]-N-(1H-5-indazolyl)amine], the half-inhibitory concentration (IC50) came out at 0.013 µM.

`COc1cc(CN2CCCC(Nc3ccc4[nH]ncc4c3)C2)cc(OC)c1` (centres unmarked) [Example 170, N-[1-(3,5-Dimethoxybenzyl)-3-piperidyl]-N-(1H-5-indazolyl)amine] registered a concentration for half-maximal inhibition (IC50) of 0.08 µM.

`c1cc2[nH]ncc2cc1NC1CCCCC1` [Example 129, N-Cyclohexyl-N-(1H-5-indazolyl)amine] gave a 50% inhibitory concentration (IC50) of 0.67 µM.

`COc1cc(CN2CCC(Nc3ccc4[nH]ncc4c3)CC2)cc(OC)c1` [Example 143, N-[1-(3,5-Dimethoxybenzyl)-4-piperidyl]-N-(1H-5-indazolyl)amine] yielded a half-maximal inhibitory concentration (IC50) of 0.399 µM.

`COc1ccc(/C=C/C(=O)Nc2ccc3[nH]ncc3c2)cc1OC` [Example 42, N1-(1H-5-Indazolyl)-(E)-3-(3,4-dimethoxyphenyl)-2-propeneamide] displayed a concentration for half-maximal inhibition (IC50) of 0.605 µM.

`O=C(/C=C/c1ccccc1O)Nc1ccc2[nH]ncc2c1` [Example 35, N1-(1H-5-Indazolyl)-(E)-3-(2-hydroxyphenyl)-2-propeneamide]: the IC50 turned out to be 1.28 µM.

`O=C(CNCc1ccccc1)Nc1ccc2[nH]ncc2c1` [Example 173, N1-(1H-5-Indazolyl)-2-(benzylamino)acetamide] had an IC50 of 0.446 µM.

Regarding `CC(C)c1ccc(CN2CCC(Nc3ccc4[nH]ncc4c3)CC2)cc1` [Example 122, N-(1H-5-Indazolyl)-N-[1-(4-isopropylbenzyl)-4-piperidyl]amine], the IC50 was determined as 0.309 µM.

`O=C(COc1c(Cl)cc(F)cc1Cl)Nc1ncnc2[nH]ncc12` [Example 32, N1-(1H-Pyrazolo[3,4-d]pyrimidin-4-yl)-2-(2,6-dichloro-4-fluorophenoxy)acetamide] registered a half-inhibitory concentration (IC50) of 1.37 µM.

Consider `O=C(NCc1ccc(Cl)cc1Cl)Nc1ccncc1` [Example 53, N-(2,4-Dichlorobenzyl)-N′-(4-pyridyl)urea], for which the concentration for half-maximal inhibition (IC50) worked out at 4.14 µM.

For the compound `Clc1cccc(CN2CCC(Nc3ccc4[nH]ncc4c3)CC2)c1` [Example 135, N-[1-(3-Chlorobenzyl)-4-piperidyl]-N-(1H-5-indazolyl)amine], the half-inhibitory concentration (IC50) came out at 0.285 µM.

`c1ccc2cc(CN3CCC(Nc4ccc5[nH]ncc5c4)CC3)ccc2c1` [Example 116, N-(1H-5-Indazolyl)-N-[1-(2-naphthylmethyl)-4-piperidyl]amine] came in with an IC50 of 0.136 µM.

For the compound `O=C(NCc1ccc(Cl)cc1Cl)Nc1ccc2[nH]ncc2c1` [Example 100, N-(2,4-Dichlorobenzyl)-N′-(1H-5-indazolyl)urea], 0.22 µM corresponded to half-maximal inhibition (IC50).

Regarding `O=C(Nc1ccccc1)Nc1ccc2c(c1)C(=O)NC2=O` [Example 72, N1-(1,3-Dioxo-2,3-dihydro-1H-5-isoindolyl)-N′-phenylurea], the midpoint of inhibition, the IC50, lay at 0.9 µM.

Compound `Brc1ccc(CN2CCC(Nc3ccc4[nH]ncc4c3)C2)cc1` (centres unmarked) [Example 155, N-[1-(4-Bromobenzyl)tetrahydro-1H-3-pyrrolyl]-N-(1H-5-indazolyl)amine] gave an IC50 of 0.024 µM.

Take `Fc1ccc(CN2CCC(Nc3ccc4[nH]ncc4c3)CC2)cc1` [Example 137, N-[1-(4-Fluorobenzyl)-4-piperidyl]-N-(1H-5-indazolyl)amine]: the IC50 turned out to be 0.478 µM.

`O=C(COc1c(Cl)cccc1Cl)Nc1ccncc1` [Example 3, N1-(4-Pyridyl)-2-(2,6-dichlorophenoxy)acetamide] yielded a concentration for half-maximal inhibition (IC50) of 0.91 µM.

Regarding `O=C(CNc1ccc(O)cc1)Nc1ccc2[nH]ncc2c1` [Example 50, N1-(1H-5-Indazolyl)-2-(4-hydroxyanilino)acetamide], the IC50 was found to be 0.326 µM.

`COc1cc(CN2CCC(Nc3ccc4[nH]ncc4c3)C2)cc(OC)c1` (centres unmarked) [Example 160, N-[1-(3,5-Dimethoxybenzyl)tetrahydro-1H-3-pyrrolyl]-N-(1H-5-indazolyl)amine] displayed an IC50 of 0.001 µM.

Consider `Fc1cccc(CN2CCC(Nc3ccc4[nH]ncc4c3)CC2)c1` [Example 117, N-[1-(3-Fluorobenzyl)-4-piperidyl]-N-(1H-5-indazolyl)amine], for which the concentration for half-maximal inhibition (IC50) is 0.317 µM.

As to `O=C(COc1c(Cl)cccc1Cl)Nc1ccc2[nH]ncc2c1` [Example 14, N1-(1H-5-Indazolyl)-2-(2,6-dichlorophenoxy)acetamide], half-maximal inhibition (IC50) was put at 1.14 µM.

The compound `CCN1CCC(Nc2ccc3[nH]ncc3c2)CC1` [Example 125, N-(1-Ethyl-4-piperidyl)-N-(1H-5-indazolyl)-amine] returned an IC50 of 0.747 µM.

On to `CC(=O)n1ncc2cc(NC3CCN(Cc4ccccc4)CC3)ccc21` [Example 176, 1-{5-[(1-Benzyl-4-piperidyl)amino]-1H-5-indazolyl}-1-ethanone], for which the IC50 stood at 0.004 µM.

In the case of `O=C(CCc1ccc(O)cc1)Nc1ccc2[nH]ncc2c1` [Example 47, N1-(1H-5-Indazolyl)-3-(4-hydroxyphenyl)-propaneamide], the 50% inhibitory concentration (IC50) is 0.735 µM.

Consider `O=C(NCc1ccccc1Cl)Nc1ccncc1` [Example 94, N-(2-Chlorobenzyl)-N′-(4-pyridyl)urea], for which the IC50 was 7.2 µM.

Consider `O=C(/C=C/c1ccc(O)cc1)Nc1ccc2[nH]ncc2c1` [Example 37, N1-(1H-5-Indazolyl)-(E)-3-(4-hydroxyphenyl)-2-propeneamide], for which the IC50 was found to be 0.305 µM.

Consider `O=C(/C=C/c1c(Cl)cccc1Cl)Nc1ccncc1` [Example 7, N1-(4-Pyridyl)-(E)-3-(2,6-dichlorophenyl)-2-propeneamide], for which it took 2.54 µM to reach half-maximal inhibition (IC50).

Compound `COc1ccc(/C=C/C(=O)Nc2ccc3[nH]ncc3c2)cc1O` [Example 41, N1-(1H-5-Indazolyl)-(E)-3-(3-hydroxy-4-methoxyphenyl)-2-propeneamide] had an IC50 of 0.224 µM.
